Measured values taken from PMC9913705, “Novel Non-Cyclooxygenase Inhibitory Derivative of Sulindac Inhibits Breast Cancer Cell Growth In Vitro and Reduces Mammary Tumorigenesis in Rats” (Cancers, 2023).
Read-outs that look alike come from different tables or passages of the source.

Assays:
[1] = tested on: human breast cancer cell lines; settings: same cell lines and treatment conditions; read-out: IC50 for human breast cancer cell growth (range over cell lines); cited from earlier work
[2] = tested on: MNU-induced mammary tumors; test: MNU model of mammary carcinogenesis; assay type: in vivo; settings: for reduction in tumor incidence compared to vehicle control / reduction in tumor multiplicity compared to vehicle control: 126 days after MNU
Method: In vivo efficacy was evaluated using the N-methyl-N-nitrosourea (MNU) model of mammary carcinogenesis, as previously described. Briefly, female Sprague-Dawley rats were obtained from Envigo (formerly Harlan Sprague-Dawley, Inc.) (Indianapolis, IN, USA) at 28 days of age and placed on a Teklad 4% fat diet on the day of arrival. Within one week of arrival, rats were randomly assigned to groups (15 rats/group), ear marked for identification, and weighed to ensure statistically similar average body weights per group. At 50 days of age, rats received one IV injection of MNU (75 mg/kg) via the jugular vein. Rats were administered 800 or 1200 ppm of SSA or vehicle control in diet beginning 3 days after MNU administration. Rats were weighed once per week, palpated for mammary tumors twice per week, and checked daily for signs of toxicity. The study was terminated at 126 days after MNU administration. All mammary tumors were weighed when removed at necropsy, weighed, and processed for histological classification and analysis. The protocol used for this study was approved by the University of Alabama at Birmingham (UAB) IACUC where the study was performed.

[3] = tested on: MDA-MB-231 breast cancer cells; test: Western blotting of phospho-VASP Ser239, cyclin D1, survivin; assay type: cell-based, human; settings: 7.5 µM
Method: All antibodies were obtained from Cell Signaling Technologies (Danvers, MA, USA). Cells were harvested and vortexed in ice cold lysis buffer containing 20 mM tris acetate, 5mM magnesium acetate, 1 mM ethylene glycol-bis(β-aminoethyl ether)-N,N,N′,N′-tetraacetic acid (EGTA), 0.8% Triton X-100, 50 mM sodium fluoride, 1.25 mM sodium vanadate, and protease inhibitor cocktail at pH 7.4. Lysates were centrifuged at 10,000× g for 10 min at 4 °C. Protein contents were determined using the Thermo/Pierce (Waltham, MA, USA) bicinchoninic acid (BCA) protein assay following the manufacturer’s specifications.
Proteins (15 µg) from lysed cells were separated by sodium dodecyl sulfate polyacrylamide gel electrophoresis (SDS-PAGE) in a 12% polyacrylamide gel followed by electrophoretic transfer to a nitrocellulose membrane. The membranes were blocked with 5% nonfat dry milk in tris-buffered saline (TBS) containing 0.05% Tween-20. Membranes were incubated with primary antibody at 4 °C overnight followed by incubation with secondary antibody conjugated to horseradish peroxidase for 2 h at room temperature. Protein bands were visualized using Millipore Immobilon enhanced chemiluminescence (ECL) substrate on HyBlot CL autoradiography film.

[4] = tested on: MCF7 cells; test: Caspase 3/7 Glo assay; assay type: cell-based, human; settings: MCF7, 6 h treatment
Method: (§1) Caspase activation was measured using Promega’s Caspase 3/7 Glo Assay following the manufacturer’s specifications. First, 96-well tissue culture treated microtiter plates were seeded at a density of 10,000 cells per well and incubated at 37 °C for 24 h prior to drug treatment. After treatment, plates were incubated 6 h prior to assay.

[5] = tested on: Hs578t, MDA-MB-231, SKBr3, and ZR75-1 cells; test: Caspase 3/7 Glo assay; assay type: cell-based, human; settings: 6 h treatment; range over Hs578t, MDA-MB-231, SKBr3, ZR75-1
Method: as §1

[6] = Plasma levels after dietary feeding; assay type: in vivo, Sprague-Dawley rats; settings: diet containing 1000, 2000, or 3000 ppm
[7] = tested on: MDA-MB-231 cells; test: Intracellular cGMP levels; assay type: cell-based, human; settings: intact MDA-MB-231, 30 min, concentrations comparable with growth IC50
Method: Intracellular levels of cGMP were measured in MDA-MB-231 cells after 30 min of drug treatment, as previously described.

[8] = tested on: MCF7; test: Growth inhibition, Cell Titer Glo; assay type: cell-based; settings: Homo sapiens; MCF7, 72 h, 2D
Method: (§2) The human breast tumor cell lines Hs578t, MCF7, MDA-MB-231, SKBr3, and ZR75-1 were obtained from ATCC (Manassas, VA, USA) and grown in RPMI 1640 media containing L-glutamine, 5% fetal bovine serum, and penicillin/streptomycin at 37 °C in a humidified atmosphere with 5% CO2.
(§3) Growth inhibition was measured using the Promega (Madison, WI, USA) Cell Titer Glo Assay following manufacturer’s specifications. First, 96-well tissue culture treated microtiter plates were seeded at a density of 5000 cells per well and incubated at 37 °C for 24 h prior to drug treatment. After treatment, plates were incubated 72 h prior to assay.

[9] = tested on: ZR75-1; test: Growth inhibition, Cell Titer Glo; assay type: cell-based; settings: Homo sapiens, ZR-75-1; ZR75-1, 72 h, 2D
Method: as §2, §3

[10] = tested on: SKBr3; test: Growth inhibition, Cell Titer Glo; assay type: cell-based; settings: Homo sapiens, SK-BR-3; SKBr3, 72 h, 2D
Method: as §2, §3

[11] = tested on: MDA-MB-231; test: Growth inhibition, Cell Titer Glo; assay type: cell-based; settings: Homo sapiens; MDA-MB-231, 72 h, 2D
Method: as §2, §3

[12] = tested on: Hs578t; test: Growth inhibition, Cell Titer Glo; assay type: cell-based; settings: Homo sapiens, Hs-578T, 72 h, 2D
Method: as §2, §3

[13] = tested on: MDA-MB-231 breast tumor cells; test: 3D HuBiogel mini-tumor growth, calcein-AM live imaging; assay type: cell-based, human; settings: MDA-MB-231, calcein AM live imaging
Method: Viable mini-tumors (1 mm in size) of MDA-MB-231 breast tumor cells were generated using the three-dimensional human Biogel culture system from Vivo Biosciences (Birmingham, AL, USA). Accordingly, 20,000 cells were mixed with HuBiogel beads and cultivated in rotary bioreactors for 3 days. Live cell imaging was performed using Calcein- acetoxymethyl (calcein-AM) staining.

[14] = tested on: human breast cancer cell lines; test: Growth inhibition, Cell Titer Glo, panel of human breast cancer cell lines; assay type: cell-based
Method: as §2, §3

[15] = tested on: cGMP PDE in SKBr3 whole cell lysate; test: cGMP hydrolysis in whole cell lysate, IMAP assay; assay type: biochemical, human; settings: 100 µM
Method: (§4) PDE activity was measured using the Molecular Devices (San Diego, CA, USA) IMAP fluorescence polarization assay as previously described. Recombinant PDE5 was purchased from BPS Biosciences (San Diego, CA, USA).

[16] = tested on: cGMP PDE in MDA-MB-231 whole cell lysate; test: cGMP hydrolysis in whole cell lysate, IMAP assay; assay type: biochemical, human; settings: 100 µM
Method: as §4

[17] = target: T1, purified ovine COX-2 (Ovis aries, UniProt P79208); test: COX-2 colorimetric activity assay (Cayman kit); assay type: biochemical; settings: purified enzyme
T1 construct: purchased Cayman Chemical Company
T1 sequence (P79208 17-603): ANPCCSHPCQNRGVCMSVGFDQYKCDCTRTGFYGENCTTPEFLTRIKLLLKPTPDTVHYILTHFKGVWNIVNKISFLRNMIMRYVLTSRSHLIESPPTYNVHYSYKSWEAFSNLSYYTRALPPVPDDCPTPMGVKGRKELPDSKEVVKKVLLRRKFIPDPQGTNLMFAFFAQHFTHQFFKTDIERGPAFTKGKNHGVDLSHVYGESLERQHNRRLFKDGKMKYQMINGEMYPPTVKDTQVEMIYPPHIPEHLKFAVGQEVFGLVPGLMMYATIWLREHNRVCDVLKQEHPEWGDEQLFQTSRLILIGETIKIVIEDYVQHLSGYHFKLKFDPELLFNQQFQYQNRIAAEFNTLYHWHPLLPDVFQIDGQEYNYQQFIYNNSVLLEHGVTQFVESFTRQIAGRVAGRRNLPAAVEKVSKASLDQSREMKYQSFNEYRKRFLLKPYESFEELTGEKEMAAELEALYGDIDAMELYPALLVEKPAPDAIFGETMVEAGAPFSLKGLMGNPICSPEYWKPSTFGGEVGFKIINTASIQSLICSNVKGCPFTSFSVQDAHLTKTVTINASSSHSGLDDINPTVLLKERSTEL
Method: (§5) COX-1 and COX-2 activities were measured using purified ovine COX-1 and COX-2 with colorimetric assay kits obtained from Cayman Chemical Company (Ann Arbor, MI, USA) according to the manufacturer’s protocol. After the addition of arachidonic acid and incubation at 25 °C for 5 min, COX activity was determined by measuring absorbance at 590 nm.

[18] = tested on: Hs578t cells; test: Tcf transcriptional activity, Super8XTOPFlash luciferase reporter; assay type: cell-based, human; settings: 24 h
Method: Tcf transcriptional activity was measured in Hs578t cells. Cells were seeded in 24-well tissue culture treated plates. After 24 h of incubation, cells were transiently transfected with 0.1 µg of Promega β-galactosidase-expressing vector and 0.1 µg of Super8XTOPFlash construct, which was kindly provided by Randall T. Moon from the University of Washington (Seattle, WA, USA). After 24 h of transfection, cells were treated with compound and incubated for an additional 24 h. Cells were lysed, and luciferase and β-galactosidase activities were measured using assay systems from Promega (Madison, WI, USA), following the manufacturer’s instructions. Luciferase activity was normalized to β-galactosidase activity.

[19] = target: T2, recombinant PDE5 (Homo sapiens, UniProt O76074); test: PDE activity, IMAP fluorescence polarization assay; assay type: biochemical
T2 construct: purchased BPS Biosciences
Method: as §4

[20] = target: T3, purified ovine COX-1 (Ovis aries, UniProt P05979); test: COX-1 colorimetric activity assay (Cayman kit); assay type: biochemical
T3 construct: purchased Cayman Chemical Company
T3 sequence (P05979 25-600): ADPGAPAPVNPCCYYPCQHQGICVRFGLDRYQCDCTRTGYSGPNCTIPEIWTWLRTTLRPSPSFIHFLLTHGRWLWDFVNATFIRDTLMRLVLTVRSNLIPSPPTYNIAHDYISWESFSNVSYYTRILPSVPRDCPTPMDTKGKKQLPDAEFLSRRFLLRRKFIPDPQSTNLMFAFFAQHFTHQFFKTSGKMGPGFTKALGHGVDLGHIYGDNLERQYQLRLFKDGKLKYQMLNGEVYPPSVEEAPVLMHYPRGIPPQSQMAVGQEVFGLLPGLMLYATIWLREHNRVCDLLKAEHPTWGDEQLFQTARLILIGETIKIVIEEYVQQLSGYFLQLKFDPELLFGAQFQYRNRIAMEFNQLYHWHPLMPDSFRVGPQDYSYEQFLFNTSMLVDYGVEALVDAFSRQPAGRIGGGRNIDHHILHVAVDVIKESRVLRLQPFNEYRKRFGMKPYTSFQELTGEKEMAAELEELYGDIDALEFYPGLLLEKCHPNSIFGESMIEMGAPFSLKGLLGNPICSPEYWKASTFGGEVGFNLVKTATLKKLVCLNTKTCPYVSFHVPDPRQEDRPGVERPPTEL
Method: as §5

[21] = tested on: SKBr3 cells; test: APO-BrdU TUNEL assay (DNA fragmentation), flow cytometry; assay type: cell-based, human; settings: 24 h
Method: A terminal deoxynucleotidyl transferase dUTP nick end labeling (TUNEL) assay was performed in SKBr3 cells using the Invitrogen APO-BrdU TUNEL Assay (Waltham, MA, USA) according to the manufacturer’s protocol, and fluorescence was measured using a Guava EasyCyte (Hayward, CA, USA) flow cytometry system. First, 10 cm tissue culture treated dishes were seeded at a density of 2,000,000 cells per dish and incubated at […] for 24 h prior to drug treatment. After treatment, cells were incubated for 24 h and then collected and fixed with 4% paraformaldehyde for 15 min on ice, washed with phosphate buffered saline (PBS), and incubated in 70% ethanol at −20 °C for 4–24 h prior to assay.

CSc1ccc(/C=C2/C(C)=C(CC(=O)O)c3cc(F)ccc32)cc1 [SS, sulindac sulfide]
IC50 [1]: 58.8 to 83.7 µM

CSc1ccc(/C=C2/C(C)=C(CC(=O)NCCN(C)C)c3cc(F)ccc32)cc1 [SSA, sulindac sulfide amide]
change in body weight ([2]; 800 and 1200 ppm in diet, 126-day study): Neither dose of SSA resulted in a significant change | reduction in tumor incidence compared to vehicle control ([2]; 800 ppm in diet): 22% | reduction in tumor multiplicity compared to vehicle control ([2]; 800 ppm in diet): 31% | reduction in tumor incidence compared to vehicle control ([2]; 1200 ppm in diet): 43% | reduction in tumor multiplicity compared to vehicle control ([2]; 1200 ppm in diet): 62% | reduction in the incidence of tumors ([2]; abstract, dose not stated): 57% | reduction in the multiplicity of tumors ([2]; abstract, dose not stated): 62% | toxicity observed in rats ([2]; long-term dietary treatment): no discernable toxicity | VASP phosphorylation at serine 239 (PKG activity marker) ([3]; MDA-MB-231): significantly increased | time of peak VASP phosphorylation ([3]; MDA-MB-231): 1 h | cyclin D1 protein levels ([3]; after 1 h): decreased appreciably | survivin protein levels ([3]; after 7 h): decreased appreciably | caspase activation [4]: no increase | increase in activity of caspases 3 and 7 [5]: 2 to 6 fold | plasma levels [6]: exceed the concentrations necessary for SSA to activate cGMP signaling and inhibit growth in breast cancer cells in vitro | intracellular cGMP levels [7]: increased intracellular cGMP levels | IC50 [8]: 7 µM | IC50 [9]: 7.1 µM | IC50 [10]: 3.9 µM | IC50 [11]: 6.5 µM | IC50 [12]: 7 µM | cell growth in 3D HuBiogel [13]: markedly reduced | IC50 ([14]; Homo sapiens, 72 h treatment, 2D growth, read-out: IC50 for human breast cancer cell growth (range over cell lines)): 3.9 to 7.1 µM | fold more potent than SS in inhibiting growth and inducing apoptosis in breast cancer cells ([14]; vs SS): 10 fold | inhibition of cGMP hydrolysis [15]: 65% | inhibition of cGMP hydrolysis [16]: 38% | IC50 [17]: > 200 µM | reduction of Tcf transcriptional activity ([18]; 5 µM): 14% | reduction of Tcf transcriptional activity ([18]; 20 µM): 60% | inhibition at 25 µM [19]: 55% | IC50 ([20]; purified enzyme): 81.6 µM | fold less potent than sulindac sulfide (SS) in inhibiting COX-1 ([20]; vs SS): 68 fold | TUNEL Positive ([21]; 10 μM): 2% | TUNEL Positive ([21]; 25 μM): 59% | TUNEL Positive ([21]; 50 μM): 86%
